The target of assay [1] is T1, human JAK3 (Homo sapiens, UniProt P52333).
T1 construct: catalytic domain (amino acids 781-1124; catalog number PV3855); purchased Invitrogen PV3855
The assay is described as follows: JAK3 inhibition assay. The assay is classed as biochemical. As to conditions: recombinant human JAK3 catalytic domain; polyGT substrate. The essentials: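 Radiometric kinase assay: 0.5 ng JAK3 with 2.5 μg polyGT in Tris pH 7.5/MgCl2 buffer, 1 μM ATP plus 0.25 μCi 33P-γ-ATP, 1% DMSO, 45 min at 30 °C, stopped with phosphoric acid.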

The target of assay [2] is T2, human JAK1 (Homo sapiens, UniProt P23458).
T2 construct: catalytic domain, amino acids 866-1154; catalog number PV4774; purchased Invitrogen PV4774
Put plainly: JAK1 inhibition assay (polyGT substrate / Ulight-JAK1 peptide). The assay is classed as biochemical. As to conditions: recombinant human JAK1 catalytic domain; polyGT or Ulight-JAK1 peptide assay. In outline: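 Signal scaled between vehicle and 10 μM staurosporine. Radiometric polyGT reactions ran 45 min at 30 °C, counted after phosphoric-acid stop. Ulight peptide reactions ran 60 min at room temperature, fluorescence read after adding Eu-PT66 detection mix with EDTA.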

In assay [3] the test system is pSTAT1(2)-luciferase reporter in HeLa cells triggered with human OSM. Put plainly: JAK-STAT signalling assay. The assay is classed as cell-based. The following applies: read-out: JAK-STAT IC50. In outline:
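Compound added 60 min before 33 ng/mL (final) human OSM; after overnight stimulation at 37 °C, luciferase signal from a transiently transfected pSTAT1(2) reporter in HeLa cells was read, with LacZ as internal control. EC50 derived from percent-inhibition dose-response curves.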

Assay [4] addresses T3, human TYK2 (Homo sapiens, UniProt P29597).
T3 construct: catalytic domain (amino acids 871-1187; catalog number 08-147); purchased Carna Biosciences 08-147
T3 sequence (P29597 871-1187): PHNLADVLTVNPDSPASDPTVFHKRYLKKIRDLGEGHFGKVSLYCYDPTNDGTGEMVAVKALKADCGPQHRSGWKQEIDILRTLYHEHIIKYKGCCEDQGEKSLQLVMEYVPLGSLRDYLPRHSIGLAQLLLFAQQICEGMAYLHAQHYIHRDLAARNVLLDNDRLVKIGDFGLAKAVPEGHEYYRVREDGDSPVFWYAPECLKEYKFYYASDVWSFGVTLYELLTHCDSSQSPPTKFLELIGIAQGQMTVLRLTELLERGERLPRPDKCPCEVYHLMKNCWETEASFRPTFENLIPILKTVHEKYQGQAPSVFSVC
Put plainly: TYK2 inhibition assay. As to conditions: recombinant human TYK2 catalytic domain, polyGT substrate. The assay is classed as biochemical. In outline:
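Radiometric kinase reaction run 90 min at 30 °C, stopped with phosphoric acid, washed and scintillation-counted.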

[5] abbreviates: Homo sapiens, HeLa, HeLa cells, pSTAT1(2)-luciferase reporter, human OSM 33 ng/mL.
[6] abbreviates: HeLa cells, pSTAT1(2)-luciferase reporter, human OSM 33 ng/mL.

Like-named read-outs stand apart in the source and are kept apart here. A value given as a limit tells only on which side of the number the result lay.

T2 sequence (P23458 866-1154): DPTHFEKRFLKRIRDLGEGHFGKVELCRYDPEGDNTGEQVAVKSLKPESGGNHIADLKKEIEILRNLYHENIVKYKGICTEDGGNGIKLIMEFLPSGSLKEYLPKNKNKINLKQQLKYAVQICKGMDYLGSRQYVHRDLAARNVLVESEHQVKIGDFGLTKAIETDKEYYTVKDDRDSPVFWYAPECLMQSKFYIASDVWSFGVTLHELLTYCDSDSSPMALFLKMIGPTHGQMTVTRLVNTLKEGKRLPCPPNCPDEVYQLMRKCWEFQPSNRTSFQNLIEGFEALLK
T1 sequence (P52333 781-1124): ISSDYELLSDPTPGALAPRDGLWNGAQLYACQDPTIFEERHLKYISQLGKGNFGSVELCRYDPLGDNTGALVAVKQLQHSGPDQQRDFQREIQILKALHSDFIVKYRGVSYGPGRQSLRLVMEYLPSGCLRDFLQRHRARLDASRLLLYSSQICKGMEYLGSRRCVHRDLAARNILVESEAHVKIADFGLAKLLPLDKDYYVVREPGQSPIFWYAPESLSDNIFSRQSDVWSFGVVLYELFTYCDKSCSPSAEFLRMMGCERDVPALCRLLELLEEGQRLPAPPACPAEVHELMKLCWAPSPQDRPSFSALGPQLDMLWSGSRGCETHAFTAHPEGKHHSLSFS

Turning to `CCc1cc(C2=CCN(C(=O)C(O)C(F)(F)F)CC2)ccc1N(C)c1cc2c(cn1)ncn2C` (stereo not shown) [Compound 230, 1-(4-(3-ethyl-4-(methyl(1-methyl-1H-imidazo[4,5-c]pyridin-6-yl)amino)phenyl)-5,6-dihydropyridin-1(2H)-yl)-3,3,3-trifluoro-2-hydroxypropan-1-one], the IC50 (usually the concentration at which inhibition is half-maximal) in assay [1] was in the range of 0.01 to 100 nM; in assay [2], 0.01 to 100 nM; in assay [3] (setting [5]) it was 1 to 500 nM; in assay [4], 0.01 to 100 nM.

In the case of `CCc1cc(C2=CCN(C(=O)C(C)(C)O)CC2)ccc1N(C)c1cc2c(cn1)ncn2C` [Compound 231, 1-(4-(3-ethyl-4-(methyl(1-methyl-1H-imidazo[4,5-c]pyridin-6-yl)amino)phenyl)-5,6-dihydropyridin-1(2H)-yl)-2-hydroxy-2-methylpropan-1-one], the IC50 in assay [1] lay within 101 to 500 nM; in assay [2], 0.01 to 100 nM; in assay [3] (setting [5]), 1 to 500 nM; in assay [4], 0.01 to 100 nM.

`CCc1cc(C2=CCN(S(=O)(=O)CC(F)(F)F)CC2)ccc1N(C)c1cc2c(cn1)ncn2C` [Compound 232, N-(2-ethyl-4-(1-(2,2,2-trifluoroethylsulfonyl)-1,2,3,6-tetrahydropyridin-4-yl)phenyl)-N,1-dimethyl-1H-imidazo[4,5-c]pyridin-6-amine]: the IC50 is 0.01 to 100 nM in assay [1], 0.01 to 100 nM in assay [2], greater than 1000 nM in assay [3] (setting [5]) and 0.01 to 100 nM in assay [4].

For the compound `CCc1cc(C2=CCN(C(=O)Nc3nncs3)CC2)ccc1N(C)c1cc2c(cn1)ncn2C` [Compound 234, 4-(3-Ethyl-4-(methyl(1-methyl-1H-imidazo[4,5-c]pyridin-6-yl)amino)phenyl)-N-(1,3,4-thiadiazol-5-yl)-5,6-dihydropyridine-1(2H)-carboxamide], the IC50 in assay [1] was in the range of 0.01 to 100 nM; in assay [2] it was 0.01 to 100 nM; in assay [3] (Homo sapiens, HeLa), 1 to 500 nM; in assay [4], 0.01 to 100 nM.

For `CCc1cc(C2CCN(C(=O)C(C)O)CC2)ccc1N(C)c1cc2c(cn1)ncn2C` (stereo not shown) [Compound 235, 1-(4-(3-ethyl-4-(methyl(1-methyl-1H-imidazo[4,5-c]pyridin-6-yl)amino)phenyl)piperidin-1-yl)-2-hydroxypropan-1-one], the IC50 was 101 to 500 nM in assay [1], 0.01 to 100 nM in assay [2], 501 to 1000 nM in assay [3] (setting [6]) and 0.01 to 100 nM in assay [4].

Turning to `CCc1cc(-c2cnn(Cc3cccc(OC)c3)c2)ccc1N(C)c1cc2c(cn1)ncn2C` [Compound 236, N-(2-ethyl-4-(1-(3-methoxybenzyl)-1H-pyrazol-4-yl)phenyl)-N,1-dimethyl-1H-imidazo[4,5-c]pyridin-6-amine], the IC50 fell in the range of 0.01 to 100 nM in assay [1], 0.01 to 100 nM in assay [2], 1 to 500 nM in assay [3] (setting [5]) and 0.01 to 100 nM in assay [4].

Consider `CCc1cc(-c2cnn(Cc3ccc(C)cc3)c2)ccc1N(C)c1cc2c(cn1)ncn2C` [Compound 237, N-(2-ethyl-4-(1-(4-methylbenzyl)-1H-pyrazol-4-yl)phenyl)-N,1-dimethyl-1H-imidazo[4,5-c]pyridin-6-amine], for which the IC50 fell in the range of 101 to 500 nM in assay [1], 0.01 to 100 nM in assay [2], 1 to 500 nM in assay [3] (setting [5]) and 0.01 to 100 nM in assay [4].

As to `CCc1cc(-c2cnn(Cc3ccc(F)cc3)c2)ccc1N(C)c1cc2c(cn1)ncn2C` [Compound 238, N-(2-ethyl-4-(1-(4-fluorobenzyl)-1H-pyrazol-4-yl)phenyl)-N,1-dimethyl-1H-imidazo[4,5-c]pyridin-6-amine], the 50% inhibitory concentration (IC50) in assay [1] is 101 to 500 nM; in assay [2] it was 0.01 to 100 nM; in assay [3] (setting [5]), 1 to 500 nM; in assay [4], 0.01 to 100 nM.

As for `CCc1cc(-c2cnn(Cc3ccc(Cl)cc3)c2)ccc1N(C)c1cc2c(cn1)ncn2C` [Compound 239, N-(4-(1-(4-chlorobenzyl)-1H-pyrazol-4-yl)-2-ethylphenyl)-N,1-dimethyl-1H-imidazo[4,5-c]pyridin-6-amine], the IC50 fell in the range of 101 to 500 nM in assay [1], 0.01 to 100 nM in assay [2], 1 to 500 nM in assay [3] (setting [5]) and 101 to 500 nM in assay [4].

`CCCn1cc(-c2ccc(N(C)c3cc4c(cn3)ncn4C)c(CC)c2)cn1` [Compound 240, N-(2-ethyl-4-(1-propyl-1H-pyrazol-4-yl)phenyl)-N,1-dimethyl-1H-imidazo[4,5-c]pyridin-6-amine]: the IC50 was 501 to 1000 nM in assay [1], 0.01 to 100 nM in assay [2], 501 to 1000 nM in assay [3] (setting [5]) and 0.01 to 100 nM in assay [4].

Regarding `CCc1cc(-c2cnn(CC)c2)ccc1N(C)c1cc2c(cn1)ncn2C` [Compound 241, N-(2-ethyl-4-(1-ethyl-1H-pyrazol-4-yl)phenyl)-N,1-dimethyl-1H-imidazo[4,5-c]pyridin-6-amine], the IC50 lay in the range of 101 to 500 nM in assay [1], 0.01 to 100 nM in assay [2], 1 to 500 nM in assay [3] (setting [5]) and 101 to 500 nM in assay [4].

Regarding `CCc1cc(-c2cnn(CC3(C)COC3)c2)ccc1N(C)c1cc2c(cn1)ncn2C` [Compound 242, N-(2-ethyl-4-(1-((3-methyloxetan-3-yl)methyl)-1H-pyrazol-4-yl)phenyl)-N,1-dimethyl-1H-imidazo[4,5-c]pyridin-6-amine], the IC50 is 501 to 1000 nM in assay [1], 0.01 to 100 nM in assay [2], greater than 1000 nM in assay [3] (setting [6]) and 101 to 500 nM in assay [4].

As for `CCc1cc(C2=CCN(S(=O)(=O)C(C)C)CC2)ccc1N(C)c1cc2c(cn1)ncn2C` [Compound 246, N-(2-ethyl-4-(1-(isopropylsulfonyl)-1,2,3,6-tetrahydropyridin-4-yl)phenyl)-N,1-dimethyl-1H-imidazo[4,5-c]pyridin-6-amine], the half-inhibitory concentration (IC50) in assay [1] lay within 0.01 to 100 nM; in assay [2], 0.01 to 100 nM; in assay [3] (setting [5]), 1 to 500 nM; in assay [4] it was 0.01 to 100 nM.

On to `CCc1cc(C2=CCN(S(=O)(=O)CC#N)CC2)ccc1N(C)c1cc2c(cn1)ncn2C` [Compound 247, 2-(4-(3-ethyl-4-(methyl(1-methyl-1H-imidazo[4,5-c]pyridin-6-yl)amino)phenyl)-5,6-dihydropyridin-1(2H)-ylsulfonyl)acetonitrile], for which the IC50 in assay [1] was in the range of 0.01 to 100 nM; in assay [2] it was 0.01 to 100 nM; in assay [3] (setting [5]) it was 1 to 500 nM; in assay [4] it was 0.01 to 100 nM.

Turning to `CCc1cc(C2=CCN(C(=O)C(C)NC(=O)OC(C)(C)C)CC2)ccc1N(C)c1cc2c(cn1)ncn2C` (stereo not shown) [Compound 249, tert-butyl 1-(4-(3-ethyl-4-(methyl(1-methyl-1H-imidazo[4,5-c]pyridin-6-yl)amino)phenyl)-5,6-dihydropyridin-1(2H)-yl)-1-oxopropan-2-ylcarbamate], the IC50 in assay [1] was 0.01 to 100 nM; in assay [2], 0.01 to 100 nM; in assay [3] (setting [5]) it was 1 to 500 nM; in assay [4], 0.01 to 100 nM.

As for `CCc1cc(C2=CCN(C(=O)C(C)OC)CC2)ccc1N(C)c1cc2c(cn1)ncn2C` (stereo not shown) [Compound 250, 1-(4-(3-ethyl-4-(methyl(1-methyl-1H-imidazo[4,5-c]pyridin-6-yl)amino)phenyl)-5,6-dihydropyridin-1(2H)-yl)-2-methoxypropan-1-one], the IC50 is 501 to 1000 nM in assay [1], 0.01 to 100 nM in assay [2], 1 to 500 nM in assay [3] (setting [5]) and 0.01 to 100 nM in assay [4].

As to `CCc1cc(C2=CCN(C(=O)[C@H](C)O)CC2)ccc1N(C)c1cc2c(cn1)ncn2C` [Compound 251, (S)-1-(4-(3-ethyl-4-(methyl(1-methyl-1H-imidazo[4,5-c]pyridin-6-yl)amino)phenyl)-5,6-dihydropyridin-1(2H)-yl)-2-hydroxypropan-1-one], the IC50 in assay [1] was 101 to 500 nM; in assay [2], 0.01 to 100 nM; in assay [3] (setting [5]), 1 to 500 nM; in assay [4] it was 0.01 to 100 nM.

With `CCc1cc(CNC(=O)CC#N)ccc1N(C)c1cc2c(cn1)ncn2C` [Compound 255, 2-cyano-N-(3-ethyl-4-(methyl(1-methyl-1H-imidazo[4,5-c]pyridin-6-yl)amino)benzyl)acetamide], the IC50 in assay [1] is 101 to 500 nM; in assay [2], 0.01 to 100 nM; in assay [3] (setting [5]), greater than 1000 nM; in assay [4], 101 to 500 nM.

In the case of `CCc1cc(C2=CCN(C(=O)Nc3ncns3)CC2)ccc1N(C)c1cc2c(cn1)ncn2C` [Compound 257, 4-(3-Ethyl-4-(methyl(1-methyl-1H-imidazo[4,5-c]pyridin-6-yl)amino)phenyl)-N-(1,2,4-thiadiazol-5-yl)-5,6-dihydropyridine-1(2H)-carboxamide], the IC50 lay in the range of 0.01 to 100 nM in assay [1], 0.01 to 100 nM in assay [2], 1 to 500 nM in assay [3] (setting [5]) and 0.01 to 100 nM in assay [4].

For the origin of these results see patent publication US20130217664A1, “NOVEL COMPOUNDS USEFUL FOR THE TREATMENT OF DEGENERATIVE AND INFLAMMATORY DISEASES” (priority 2012, published 2013).
